Key:
Assay type in all cases: cell-based, C57BL/6 mice
ENR+CD organoids = assay: Flow cytometry analysis, 3D culture, XPO1 inhibitors; conditions: 6-day ENR+CD organoids
Protocol: ISC-enriched organoids cultured in 3D Matrigel with ENRCV media were passaged to 24-well plate in 3D Matrigel with ENRCV. At day zero, media were replaced to ENRCD with or without indicated compounds, and media were replaced every other day. At day six, cells were washed with basal media, and then harvested from Matrigel by mechanical disruption in TrypLE Express (ThermoFisher, 12605010) to remove Matrigel and dissociate organoids to single cells. After vigorous pipetting and incubation at 37° C. for 20 min, dissociated organoids were strained through a 35 μm cell strainer into a tube (Falcon, 352235). The cell filtrate was centrifuged again at 300×g for 3 min at 4° C. to pellet the cells. Cell pellets were resuspended in FACS buffer (2% FBS in PBS), and then transferred to an ultra low-bind 96-well plate (Corning, 7007). Cells were stained with Zombie-violet viability dye (BioLegend, 423107) at 100× for viability staining and/or antibody staining solution. FITC-conjugated antibody for lysozyme (Dako, […]) and APC-conjugated antibody for CD24 (BioLegend, 138505) were used at 100× dilution. Flow cytometry was performed using an LSR Fortessa (BD; Koch Institute Flow Cytometry Core at MIT). The data were analyzed using FlowJo v10 software.

[1] = system: ENR+CD and ENR organoid populations; assay: Population RNA-seq of organoids; conditions: 3 days of treatment, all media conditions controlled, FDR<0.01
Source text: To further assess the potential interaction of Wnt agonist CHIR99021 (C) and Notch inhibitor DAPT (D) with XPO1 inhibitors, we carried out an experiment where we assessed bulk organoid population transcriptomes (with RNA-seq) from multiple variations on growth media, XPO1 inhibitor, and duration of treatment (FIG. 12A). To characterize the resulting cell phenotypes, we used aggregate scores of geneset enrichment (based on module scoring as implemented in^7) from the in vivo Paneth and related enteroendocrine cell populations (genesets taken from^6). We see that again for both ENR+CD treated (FIG. 12B) and ENR treated (FIG. 12C) organoid populations, XPO1 inhibition drives enrichment in Paneth cell defining genes, principally at 3 days of treatment. […]
Population RNA-seq was performed using a derivative of the Smart-Seq2 protocol for single cells^1,2. […] Libraries were pooled post-Nextera and cleaned using Agencourt AMPure SPRI beads with successive 0.7× and 0.8× ratio SPRIs and sequenced with an Illumina 75 Cycle NextSeq500/550v2 kit (Illumina FC-404-2005) with loading density at 2.2 pM, with paired end 35 cycle read structure. Samples were sequenced at an average read depth of 8.44 million reads per sample and a total of 96 samples. […]

[2] = system: organoids differentiated under ENR+CV, ENR+CD, or ENR; assay: Western blotting for LYZ in organoids; conditions: six days in ENR+CV
Source text: ISC-enriched organoids cultured in 3D Matrigel with ENRCV media were passaged to 24-well plate in 3D Matrigel with ENRCV. At day zero, media were replaced to ENR or ENRCD with or without indicated compounds, and media were replaced every other day. At day six, cells were harvested from Matrigel by mechanical disruption and suspended in basal media. Cell pellets were lysed with Pierce® IP lysis buffer (ThermoFisher, 87787) containing Halt™ Protease Inhibitor Cocktail, EDTA-Free (ThermoFisher, 87785) after 3-minute centrifuge at 300×g at 4° C. Cell extracts were resolved by NuPAGE® SDS-PAGE Gel system (ThermoFisher) and electroblotted onto polyvinylidene difluoride membranes using Criterion™ Blotter (Biorad). The membranes were blocked with 2% Blotting-Grade Blocker (Biorad, 1706404) in TBS-T (50 mM Tris-HCl, 150 mM NaCl, and 0.1% Tween 20, pH 8.0) and then probed with appropriate antibodies. Detection was performed using ECL Select™ Western Blotting Detection Reagent (Amersham, 45-000-999) and ImageQuant LAS4000 (GE Healthcare).

[3] = system: ISC-enriched organoids in ENR+CD; assay: 384-well secondary screen in ENR+CD, ATP assay; conditions: 100 nM
Source text: We again assessed treatment effect size with replicate SSMD (using a difference between well replicates and median assay value for all same-plate control wells—see Materials and Methods, High-throughput screening: 384-well secondary screen format and early vs. full treatment analysis) and hits were considered statistically validated by an SSMD greater than the false-positive-derived cutoffs (βα1=0.89 for 8 replicates with alpha=0.05; see Materials and Methods, High-throughput screening: 384-well secondary screen format and early vs. full treatment analysis) for both LYZ.NS and LYZ.S assays (FIG. 7A). […]
For 384-well plate high-throughput screening, ISC-enriched organoids were passaged and split to single cells with TyrpLE (Thermo Fisher Scientific) and cultured for 2-3 days in ENR+CVY prior to transfer to a “2.5-D” 384-well plate culture system. […] On the final wash, pellet was resuspended in basal culture medium, the number of organoids counted, and the cell pellet was resuspended in ENR+CD medium at ˜7 clusters/μL. […] On day six, lysozyme secretion and cell viability were assessed using Lysozyme Assay Kit (EnzChek) and CellTiter-Glo 3D Cell Viability Assay (Promega), respectively, according to the manufacturers' protocols. […]

[4] = system: ISC-enriched organoids in ENR+CD; assay: 384-well secondary screen in ENR+CD incl. early vs. full treatment, secreted LYZ (LYZ.NS, LYZ.S)
Source text: We again assessed treatment effect size with replicate SSMD (using a difference between well replicates and median assay value for all same-plate control wells—see Materials and Methods, High-throughput screening: 384-well secondary screen format and early vs. full treatment analysis) and hits were considered statistically validated by an SSMD greater than the false-positive-derived cutoffs (βα1=0.89 for 8 replicates with alpha=0.05; see Materials and Methods, High-throughput screening: 384-well secondary screen format and early vs. full treatment analysis) for both LYZ.NS and LYZ.S assays (FIG. 7A). Per this new cutoff, 10 dose-treatment combinations corresponding to 7 small molecules were chosen as hits, with every passing dose-treatment having a greater than 0 ATP effect size.
For 384-well plate high-throughput screening, ISC-enriched organoids were passaged and split to single cells with TyrpLE (Thermo Fisher Scientific) and cultured for 2-3 days in ENR+CVY prior to transfer to a “2.5-D” 384-well plate culture system. To prepare for “2.5D” plating, cell-laden Matrigel and media were homogenized via mechanical disruption and centrifuged at 300 g for 3 min at 4° C. Supernatant was removed and the pellet washed and spun in basal culture medium repeatedly until the cloudy Matrigel above the cell pellet was gone. On the final wash, pellet was resuspended in basal culture medium, the number of organoids counted, and the cell pellet was resuspended in ENR+CD medium at ˜7 clusters/μL. 384-well plates were first filled with 10 μL of 70% Matrigel (30% basal media) coating in each well using a Tecan Evo 150 Liquid Handling Deck, and allowed to gel at 37° C. for 5 minutes. Then 30 μL of cell-laden media was plated at the center of each well of 384-well plates with the liquid handler, and the plates were spun down at 50 g for 1 minute to embed organoids on the Matrigel surface. Compound libraries were pinned into prepped cell plates using 50 nL pins into 30 μL media/well. Cells were cultured at 37° C. with 5% CO2 for six days in ENR+CD medium supplemented with the tested compounds with a media change at three days. On day six, lysozyme secretion and cell viability were assessed using Lysozyme Assay Kit (EnzChek) and CellTiter-Glo 3D Cell Viability Assay (Promega), respectively, according to the manufacturers' protocols. Briefly, screen plates were washed 3× with FluoroBrite basal media (2 mM GlutaMAX and 10 mM HEPES in FluoroBrite DMEM (Thermo Fisher Scientific)) using a BioTek 406 plate washer with 10 min incubations followed by a 1 min centrifugation at 200 g to settle media between washes. After removal of the third wash, 30 μL of non-stimulated FluoroBrite basal media was added to each screen well using a Tecan Evo 150 Liquid Handling Deck from a non-stimulated treatment master plate, and plates were incubated for 30 min at 37° C. After 30 minutes, the top 15 μL of media from each well of the screen plate was transferred to a non-stimulated LYZ assay plate containing 15 μL of 20× DQ LYZ assay working solution using a Tecan Evo 150 Liquid Handling Deck. The non-stimulated LYZ assay plate was covered, shaken for 10 min, incubated for 50 min at 37° C., then fluorescence measured (shake 10 s; […]/518 nm) using a Tecan M1000 Plate Reader. After the media transfer to the non-stimulated LYZ assay plate, the remaining media was removed from the screen plate and 30 μL of Stimulated FluoroBrite basal media (supplemented with 10 μM CCh) was added to each screen well using a Tecan Evo 150 Liquid Handling Deck from a stimulated treatment master plate, and plates were incubated for 30 min at 37° C. After 30 minutes, the top 15 μL of media from each well of the screen plate was transferred to a stimulated LYZ assay plate containing 15 μL of 20× DQ LYZ assay working solution using a Tecan Evo 150 Liquid Handling Deck. […]

[5] = system: conventional organoid (ENR); assay: 384-well screen in conventional organoid (ENR), secreted LYZ (LYZ.NS, LYZ.S); conditions: 6-day ENR+treatment, single treatment-dose

Row | Structure (SMILES) | Paneth cell representation by flow cytometry (ENR+CD organoids) | identity of the majority of significantly up-regulated genes relative to no treatment (DESeq2) [1] | LYZ abundance on a per-mass protein normalized basis (western blot) [2] | ATP alone, early versus full treatment [3] | validation in secondary screen (SSMD above cutoff for both LYZ.NS and LYZ.S) ([4]; 6-day ENR+CD+treatment vs ENR+CD+DMSO, cutoff 0.89, 8 replicates) | LYZ.NS/ATP, early versus full treatment ([4]; ENR+CD, 100 nM) | LYZ.S/ATP, early versus full treatment ([4]; ENR+CD, 100 nM) | improvement in function, early (first 3 days) versus full 6-day treatment, LYZ.NS and LYZ.S assays ([4]; ENR+CD, maximal validated dose) | LYZ.NS reading versus ENR+DMSO [5]
1 | NC(=O)/C(=C/n1cnc(-c2cc(C(F)(F)F)cc(C(F)(F)F)c2)n1)c1cncnc1 [KPT-8602] | statistically significant increases in Paneth cell representation | known Paneth cell lineage-defining genes | appreciably increase LYZ abundance | – | – | – | – | – | –
2 | Cc1[nH]c(/C=C2\C(=O)Nc3ccc(S(=O)(=O)Cc4c(Cl)cccc4Cl)cc32)c(C)c1C(=O)N1CCC[C@@H]1CN1CCCC1 [PHA-665752] | – | – | – | no difference in ATP alone | multiple validated doses | significant difference (adj. p<0.05) between early and full | suggestive trend | significantly (adj. p<0.05) lower improvement in function with early treatment versus full | significantly lower LYZ.NS

Reference: US20200237852A1, “Small Molecule Enhancers of Paneth Cell Function and Differentiation” (Massachusetts Institute of Technology, priority 2019, published 2020)
